Reference: paper PMC7316778 (Nature Communications, 2020)
Where “and” joins values, the source holds several entries; their conditions need not be identical. Identical values can stand only once. Like-named read-outs stand apart in the source and are kept apart here.

Experiments:
Test in all cases: SelectScreen kinase assay
ALK [1] = biological target: ALK (Homo sapiens, UniProt Q9UM73)
Method: (§1) Selectivity profiling assays were performed by the Invitrogen SelectScreen™ Services. […] The concentration of ATP was selected to be equal to the KM, unless indicated otherwise.

ALK [2] = details: IC50 on that kinase divided by IC50 on FES^S700C
Method: as §1

BRSK2 = biological target: T1, BRSK2 (Homo sapiens, UniProt Q8IWQ3)
T1 sequence (Q8IWQ3 1-736): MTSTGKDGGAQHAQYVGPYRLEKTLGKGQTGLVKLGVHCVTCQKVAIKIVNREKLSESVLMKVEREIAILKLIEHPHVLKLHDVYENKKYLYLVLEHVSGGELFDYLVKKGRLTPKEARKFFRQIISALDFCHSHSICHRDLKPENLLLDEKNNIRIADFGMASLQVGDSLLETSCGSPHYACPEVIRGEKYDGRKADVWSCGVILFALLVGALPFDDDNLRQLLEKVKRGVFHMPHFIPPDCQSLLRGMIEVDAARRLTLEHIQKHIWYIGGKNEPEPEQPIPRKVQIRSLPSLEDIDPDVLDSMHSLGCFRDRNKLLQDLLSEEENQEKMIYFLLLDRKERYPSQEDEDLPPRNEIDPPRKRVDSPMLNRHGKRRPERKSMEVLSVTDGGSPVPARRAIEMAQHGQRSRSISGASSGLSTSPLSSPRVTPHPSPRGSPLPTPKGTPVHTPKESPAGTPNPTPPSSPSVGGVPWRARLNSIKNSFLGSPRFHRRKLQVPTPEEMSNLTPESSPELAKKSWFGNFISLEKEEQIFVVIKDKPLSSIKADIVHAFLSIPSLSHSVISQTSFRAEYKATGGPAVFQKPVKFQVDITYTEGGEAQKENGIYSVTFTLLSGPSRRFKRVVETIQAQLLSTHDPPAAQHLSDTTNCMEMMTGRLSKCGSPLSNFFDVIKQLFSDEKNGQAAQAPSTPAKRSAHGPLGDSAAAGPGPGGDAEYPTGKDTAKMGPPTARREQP
Method: as §1

FYN = FYN (Homo sapiens, UniProt P06241)
Sequence of FYN (P06241 whole entry): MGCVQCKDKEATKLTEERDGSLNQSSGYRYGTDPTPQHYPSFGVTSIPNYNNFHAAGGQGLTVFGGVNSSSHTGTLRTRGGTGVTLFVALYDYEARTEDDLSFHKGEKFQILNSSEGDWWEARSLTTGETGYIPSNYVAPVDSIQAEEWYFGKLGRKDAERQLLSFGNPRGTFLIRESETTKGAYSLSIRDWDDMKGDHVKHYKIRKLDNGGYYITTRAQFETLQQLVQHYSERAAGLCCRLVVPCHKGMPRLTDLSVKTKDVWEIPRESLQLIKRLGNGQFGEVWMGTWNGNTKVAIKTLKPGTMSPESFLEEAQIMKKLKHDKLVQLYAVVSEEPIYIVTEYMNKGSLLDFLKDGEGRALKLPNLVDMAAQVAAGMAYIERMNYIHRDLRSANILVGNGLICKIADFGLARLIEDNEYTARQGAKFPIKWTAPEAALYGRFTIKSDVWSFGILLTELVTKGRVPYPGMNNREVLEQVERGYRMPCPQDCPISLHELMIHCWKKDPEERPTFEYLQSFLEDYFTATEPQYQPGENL
Method: as §1

HIPK4 = biological target: T2, HIPK4 (Homo sapiens, UniProt Q8NE63)
T2 sequence (Q8NE63 1-616): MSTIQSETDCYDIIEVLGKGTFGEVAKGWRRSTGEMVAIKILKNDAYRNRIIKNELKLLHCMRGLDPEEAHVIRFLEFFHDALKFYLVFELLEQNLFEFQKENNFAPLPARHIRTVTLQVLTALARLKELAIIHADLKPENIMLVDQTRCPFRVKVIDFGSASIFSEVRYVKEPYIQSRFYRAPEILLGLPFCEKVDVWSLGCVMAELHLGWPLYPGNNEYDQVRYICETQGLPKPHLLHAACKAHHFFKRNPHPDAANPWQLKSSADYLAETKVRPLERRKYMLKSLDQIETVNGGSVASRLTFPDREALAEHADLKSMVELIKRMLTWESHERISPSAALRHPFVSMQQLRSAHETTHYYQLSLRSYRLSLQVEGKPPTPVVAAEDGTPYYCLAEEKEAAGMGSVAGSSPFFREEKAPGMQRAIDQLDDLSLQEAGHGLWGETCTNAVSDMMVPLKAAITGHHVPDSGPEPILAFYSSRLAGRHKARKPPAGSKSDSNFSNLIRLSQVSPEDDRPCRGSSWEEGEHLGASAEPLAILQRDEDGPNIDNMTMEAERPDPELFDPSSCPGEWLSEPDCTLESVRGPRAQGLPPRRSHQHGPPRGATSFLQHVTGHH
Method: as §1

NTRK3 (TRKC) = NTRK3 (TRKC) (Homo sapiens, UniProt Q16288)
Sequence of NTRK3 (TRKC) (Q16288 32-839): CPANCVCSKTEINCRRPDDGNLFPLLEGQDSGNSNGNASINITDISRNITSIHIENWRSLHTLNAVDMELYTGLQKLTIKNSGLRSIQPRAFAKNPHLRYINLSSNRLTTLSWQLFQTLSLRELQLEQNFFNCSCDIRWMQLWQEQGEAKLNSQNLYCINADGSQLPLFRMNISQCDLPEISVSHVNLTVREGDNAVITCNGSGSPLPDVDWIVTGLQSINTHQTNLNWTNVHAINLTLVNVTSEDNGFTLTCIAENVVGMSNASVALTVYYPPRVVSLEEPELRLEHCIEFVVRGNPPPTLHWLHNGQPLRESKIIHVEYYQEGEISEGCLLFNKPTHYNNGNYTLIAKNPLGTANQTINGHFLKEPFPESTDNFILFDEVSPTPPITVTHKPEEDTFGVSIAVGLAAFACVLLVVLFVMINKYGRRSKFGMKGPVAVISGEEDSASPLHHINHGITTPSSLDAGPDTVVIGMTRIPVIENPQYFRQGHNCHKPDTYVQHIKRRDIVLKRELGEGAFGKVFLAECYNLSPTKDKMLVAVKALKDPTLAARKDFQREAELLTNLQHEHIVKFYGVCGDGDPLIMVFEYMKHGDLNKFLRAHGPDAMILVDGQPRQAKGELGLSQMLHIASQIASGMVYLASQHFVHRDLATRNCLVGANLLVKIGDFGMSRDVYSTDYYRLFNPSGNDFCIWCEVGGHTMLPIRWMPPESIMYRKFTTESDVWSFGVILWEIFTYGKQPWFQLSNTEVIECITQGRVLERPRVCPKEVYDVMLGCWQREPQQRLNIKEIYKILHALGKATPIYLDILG
Method: as §1

PIM1 = PIM1 (Homo sapiens, UniProt P11309); details: for Inhibition at 1 µM (%): PIM1, ZLYTE, ATP Km app
Sequence of PIM1 (P11309 whole entry): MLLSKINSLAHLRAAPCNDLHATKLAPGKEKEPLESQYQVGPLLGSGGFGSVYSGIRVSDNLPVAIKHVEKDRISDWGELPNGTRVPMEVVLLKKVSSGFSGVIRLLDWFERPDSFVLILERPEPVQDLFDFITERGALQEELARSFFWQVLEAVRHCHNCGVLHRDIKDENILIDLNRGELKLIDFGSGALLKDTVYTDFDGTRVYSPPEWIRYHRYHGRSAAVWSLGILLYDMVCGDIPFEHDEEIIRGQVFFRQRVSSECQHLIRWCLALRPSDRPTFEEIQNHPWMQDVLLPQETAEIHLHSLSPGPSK
Method: as §1

PRKCB1 (PKC beta I) = PRKCB1 (PKC beta I) (Homo sapiens, UniProt P05771)
Sequence of PRKCB1 (PKC beta I) (P05771 whole entry): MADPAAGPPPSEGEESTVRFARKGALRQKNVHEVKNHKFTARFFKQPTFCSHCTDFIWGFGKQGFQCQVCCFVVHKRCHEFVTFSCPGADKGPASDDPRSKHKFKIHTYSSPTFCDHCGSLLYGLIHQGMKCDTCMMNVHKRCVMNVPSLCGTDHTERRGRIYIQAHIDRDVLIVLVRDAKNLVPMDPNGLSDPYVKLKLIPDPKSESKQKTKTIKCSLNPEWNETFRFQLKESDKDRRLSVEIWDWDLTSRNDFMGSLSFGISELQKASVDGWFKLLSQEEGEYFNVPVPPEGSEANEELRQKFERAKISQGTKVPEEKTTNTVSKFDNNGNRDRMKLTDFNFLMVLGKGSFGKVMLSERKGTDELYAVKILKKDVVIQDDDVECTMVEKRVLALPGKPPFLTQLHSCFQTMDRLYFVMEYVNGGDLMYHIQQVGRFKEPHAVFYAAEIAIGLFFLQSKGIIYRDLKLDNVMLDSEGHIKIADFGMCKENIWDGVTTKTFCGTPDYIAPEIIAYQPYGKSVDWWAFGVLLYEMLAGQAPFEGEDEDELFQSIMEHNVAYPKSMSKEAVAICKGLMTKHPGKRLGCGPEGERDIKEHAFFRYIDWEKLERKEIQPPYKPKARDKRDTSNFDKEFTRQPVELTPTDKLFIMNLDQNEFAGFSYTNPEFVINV
Method: as §1

STK4 (MST1) = STK4 (MST1) (Homo sapiens, UniProt Q13043)
Sequence of STK4 (MST1) (Q13043 whole entry): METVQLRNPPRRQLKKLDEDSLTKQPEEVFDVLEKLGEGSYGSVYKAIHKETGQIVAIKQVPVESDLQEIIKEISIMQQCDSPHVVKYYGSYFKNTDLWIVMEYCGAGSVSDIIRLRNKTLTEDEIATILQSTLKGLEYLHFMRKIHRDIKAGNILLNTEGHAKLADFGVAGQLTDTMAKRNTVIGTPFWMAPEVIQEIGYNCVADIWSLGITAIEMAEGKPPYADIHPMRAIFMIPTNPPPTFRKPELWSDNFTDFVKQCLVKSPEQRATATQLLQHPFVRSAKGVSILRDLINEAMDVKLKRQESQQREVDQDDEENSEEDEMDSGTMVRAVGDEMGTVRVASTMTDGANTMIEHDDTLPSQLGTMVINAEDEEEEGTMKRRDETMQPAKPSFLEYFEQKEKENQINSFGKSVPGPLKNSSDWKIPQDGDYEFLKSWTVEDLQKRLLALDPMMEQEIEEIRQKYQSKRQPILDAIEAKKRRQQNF
Method: as §1

TTK = biological target: T3, TTK (Homo sapiens, UniProt P33981)
T3 sequence (P33981 1-857): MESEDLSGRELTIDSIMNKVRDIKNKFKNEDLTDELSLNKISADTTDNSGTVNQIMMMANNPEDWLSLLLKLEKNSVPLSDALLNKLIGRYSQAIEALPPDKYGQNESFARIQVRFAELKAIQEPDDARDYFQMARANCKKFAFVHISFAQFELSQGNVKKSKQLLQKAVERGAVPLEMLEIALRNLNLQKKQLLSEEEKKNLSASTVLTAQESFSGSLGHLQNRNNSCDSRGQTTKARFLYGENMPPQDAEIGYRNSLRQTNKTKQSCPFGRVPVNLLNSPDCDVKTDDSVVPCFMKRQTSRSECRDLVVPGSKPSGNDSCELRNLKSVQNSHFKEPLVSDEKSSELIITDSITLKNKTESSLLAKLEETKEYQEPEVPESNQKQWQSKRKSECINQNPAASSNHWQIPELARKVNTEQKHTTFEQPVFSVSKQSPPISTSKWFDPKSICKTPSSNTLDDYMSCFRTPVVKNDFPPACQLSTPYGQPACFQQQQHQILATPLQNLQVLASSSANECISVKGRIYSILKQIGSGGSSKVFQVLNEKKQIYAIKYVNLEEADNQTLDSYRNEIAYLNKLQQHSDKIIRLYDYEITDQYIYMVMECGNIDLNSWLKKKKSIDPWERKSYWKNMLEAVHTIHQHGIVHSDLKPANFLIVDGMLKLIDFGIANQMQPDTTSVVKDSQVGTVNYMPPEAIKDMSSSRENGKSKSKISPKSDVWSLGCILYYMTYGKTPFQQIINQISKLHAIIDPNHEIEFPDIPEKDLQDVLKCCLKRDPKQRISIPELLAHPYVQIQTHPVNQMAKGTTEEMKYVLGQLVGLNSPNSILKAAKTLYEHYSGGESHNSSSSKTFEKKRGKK
Method: as §1

[3] = 1 h, 1 μM WEL028, 1 h preincubation

Sequence of ALK (Homo sapiens, UniProt Q9UM73) (Q9UM73 19-1620, species assumed): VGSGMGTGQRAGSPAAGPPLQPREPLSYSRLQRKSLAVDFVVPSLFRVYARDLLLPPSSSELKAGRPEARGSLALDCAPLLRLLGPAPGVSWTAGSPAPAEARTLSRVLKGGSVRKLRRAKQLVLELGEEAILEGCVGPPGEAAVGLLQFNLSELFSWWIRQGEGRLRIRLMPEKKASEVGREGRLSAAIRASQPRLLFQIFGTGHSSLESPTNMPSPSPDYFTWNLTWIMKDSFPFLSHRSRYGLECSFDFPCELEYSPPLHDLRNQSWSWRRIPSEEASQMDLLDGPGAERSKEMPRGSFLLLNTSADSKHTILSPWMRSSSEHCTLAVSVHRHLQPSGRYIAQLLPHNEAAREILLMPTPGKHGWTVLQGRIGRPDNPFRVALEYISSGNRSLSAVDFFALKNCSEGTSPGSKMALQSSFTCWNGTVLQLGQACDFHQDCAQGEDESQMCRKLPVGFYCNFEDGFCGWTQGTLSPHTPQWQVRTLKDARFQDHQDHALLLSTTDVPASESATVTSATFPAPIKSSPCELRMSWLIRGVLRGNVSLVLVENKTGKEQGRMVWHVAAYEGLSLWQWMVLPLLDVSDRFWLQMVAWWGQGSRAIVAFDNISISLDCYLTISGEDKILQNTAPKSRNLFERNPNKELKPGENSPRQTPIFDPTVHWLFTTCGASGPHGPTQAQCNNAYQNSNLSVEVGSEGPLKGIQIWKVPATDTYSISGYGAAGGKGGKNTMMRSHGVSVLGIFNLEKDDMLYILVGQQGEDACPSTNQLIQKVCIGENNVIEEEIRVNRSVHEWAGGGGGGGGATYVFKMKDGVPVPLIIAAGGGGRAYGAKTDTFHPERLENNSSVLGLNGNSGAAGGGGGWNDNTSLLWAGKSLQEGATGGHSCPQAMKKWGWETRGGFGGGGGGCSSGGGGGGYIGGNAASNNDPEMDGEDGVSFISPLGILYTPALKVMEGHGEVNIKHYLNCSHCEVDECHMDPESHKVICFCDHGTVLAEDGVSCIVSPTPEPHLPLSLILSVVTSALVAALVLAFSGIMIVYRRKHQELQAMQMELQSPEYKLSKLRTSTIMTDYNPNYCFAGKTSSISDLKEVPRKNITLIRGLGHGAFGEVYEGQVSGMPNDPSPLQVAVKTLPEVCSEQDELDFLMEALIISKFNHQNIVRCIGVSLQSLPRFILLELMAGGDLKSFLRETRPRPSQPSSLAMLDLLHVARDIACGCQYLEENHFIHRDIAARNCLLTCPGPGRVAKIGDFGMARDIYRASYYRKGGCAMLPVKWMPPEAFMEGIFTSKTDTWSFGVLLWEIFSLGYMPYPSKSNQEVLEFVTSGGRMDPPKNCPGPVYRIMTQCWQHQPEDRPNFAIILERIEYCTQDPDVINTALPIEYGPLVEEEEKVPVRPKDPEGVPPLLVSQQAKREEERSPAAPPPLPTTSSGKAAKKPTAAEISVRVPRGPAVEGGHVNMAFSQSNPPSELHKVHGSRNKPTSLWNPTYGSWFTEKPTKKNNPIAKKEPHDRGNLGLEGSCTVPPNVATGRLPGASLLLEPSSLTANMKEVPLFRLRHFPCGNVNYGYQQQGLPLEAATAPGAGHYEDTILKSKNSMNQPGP

`C#CCOc1ccc(Nc2ncc(Cl)c(Nc3ccccc3NC(=O)C=C)n2)c(OC)c1` [Compound 6] was tested, and the IC50 (ALK [1]) was 126 nM, the inhibition at 1 µM (ALK [1]; [3]) was 89% and the inhibition at 1 µM (ALK [1]; read-out: Inhibition at 1 µM (%), ALK, 1 µM, ZLYTE, ATP Km app) was 90%. For the same compound, the Apparent fold selectivity (ALK [2]) was 28 fold, the inhibition at 1 µM (BRSK2; [3]) was 7% and the “Inhibition at 1 µM (%)” value (BRSK2; BRSK2, 1 µM, LanthaScreen Binding, listed as WEL028, 1 µM) was 8%. The inhibition at 1 µM (BRSK2; read-out: Inhibition at 1 µM (%), BRSK2, 1 µM, LanthaScreen Binding) was 7%, the inhibition at 1 µM (FYN; [3]) was 4% and the “Inhibition at 1 µM (%)” value (FYN; FYN, 1 µM, ZLYTE, ATP Km app, listed as WEL028, 1 µM) was 0% and 8%. The inhibition at 1 µM (HIPK4; [3]) was 14%, the “Inhibition at 1 µM (%)” value (HIPK4; HIPK4, 1 µM, ZLYTE, ATP Km app, listed as WEL028, 1 µM) was 16% and the inhibition at 1 µM (HIPK4; read-out: Inhibition at 1 µM (%), HIPK4, 1 µM, ZLYTE, ATP Km app) was 12%. The inhibition at 1 µM (NTRK3 (TRKC); [3]) was 4%, the “Inhibition at 1 µM (%)” value (NTRK3 (TRKC); NTRK3 (TRKC), 1 µM, ZLYTE, ATP Km app, listed as WEL028, 1 µM) was 0% and 8% and the inhibition at 1 µM (PIM1; [3]) was -8%. The “Inhibition at 1 µM (%)” value (PIM1) was -11%, the “Inhibition at 1 µM (%)” value (PIM1; listed as WEL028, 1 µM) was -5% and the inhibition at 1 µM (PRKCB1 (PKC beta I); [3]) was 16%. The “Inhibition at 1 µM (%)” value (PRKCB1 (PKC beta I); PRKCB1 (PKC beta I), 1 µM, ZLYTE, ATP Km app) was 25%, the “Inhibition (%)” value (STK4 (MST1); 1 μM WEL028, 1 h preincubation) was 3% and the “Inhibition at 1 µM (%)” value (STK4 (MST1); 1 µM, ZLYTE, ATP Km app) was 11%. The IC50 (TTK) was 631 nM, the “Inhibition at 1 µM (%)” value (TTK; 1 µM, LanthaScreen Binding, listed as WEL028, 1 µM) was 76% and the inhibition at 1 µM (TTK; [3]) was 77%. For the same compound, the Apparent fold selectivity (TTK; IC50 on that kinase divided by IC50 on FES^S700C) was 152 fold and the inhibition at 1 µM (TTK; read-out: Inhibition at 1 µM (%), 1 µM, LanthaScreen Binding) was 77%.
